Measured values as given in patent publication US20170216401A1, “COMBINATION FOR USE IN A METHOD OF TREATING CANCER” (priority 2014, published 2017).

How the values were obtained:
[1] = system: TGF-beta signal transduction; settings: p-SMAD2 western blot (Gaspar et al., 2007); cited from earlier work
[2] = system: human glioma cells HTZ-349 and A-172; assay: cell-mediated tumor cytotoxicity assay, calcein release (CARE-LASS); type: cell-based; settings: PBMC and target cells preincubated 6 days with SD-208, IL-2 and GM-CSF; effector/target 1:100, 1:10, 1:1; 4 hours; FIG. 2
Method: Establishment and culture of primary tumor cell cultures were performed as previously described (Jachimczak et al., 1993). Briefly, tumor specimens were cultivated in Dulbecco's minimum essential medium (DMEM) containing 10% FCS, 1% BME vitamin solution, and 1% MEM nonessential amino acids. HTZ-349 was established as primary cell culture from a patient suffering from glioblastoma multiforme (GBM, Grade IV). A-172 cells were obtained from ATCC (GBM). Peripheral blood mononuclear cells (PBMC) were isolated from venous blood of two healthy donors by standard Ficoll-Hypaque gradient centrifugation (Jachimczak et al., 1993).
PBMC were activated with IL-2 (Proleukin S) and GM-CSF. Immune cell cytotoxicity against the target tumor cells was determined in a calcein-release assay (Lichtenfels et al., 1994) by adding pre-activated PBMC to glioma target cells at an effector/target ratio of 1:100, 1:10 and 1:1. After 4 hours, fluorescence of supernatants was analyzed (Fluoroscan, Germany) and calculated as described (Lichtenfels et al., 1994).

Fc1ccc(Cl)cc1-c1nc(Nc2ccncc2)c2nccnc2n1 [SD-208]
inhibition of TGF-beta signal transduction [1]: inhibits TGF-beta signal transduction in a dose-dependent fashion | allogenous cell cytotoxicity against glioma target cells [2]: enhanced
